The structures appear in SMILES notation. pEC50, pIC50, pKi: −log10 of the molar value.

Assay [1] addresses T1, human VR1 (Homo sapiens, UniProt Q8NER1).
T1 construct: expressed in transfected cells; host or cells: HEK293
As to the kind of experiment: Human VR1 [3H]RTX binding assay. The conditions noted are these: for h Binding % I (1 μM) / inhibition at 1 µM: inhibition of [3H]RTX binding at 1 μM; for pKi: [3H]RTX binding, HEK293 membranes; for inhibition at 1 µM: read-out: h Binding % I (1 μM). The method, then: Compounds of the present invention were tested for their ability to inhibit the binding of tritiated resiniferatoxin ([^3H] RTX) to human VR1 receptors in a [^3H] RTX binding assay, as previously described (Zhang, Sui-Po. Improved ligand binding assays for vanilloid receptors. PCT Int. Appl. (2002), WO 0233411 A1 20020425 AN 2002:315209; Grant, Elfrida R., Dubin, Adrienne E., Zhang, Sui-Po, Zivin, Robert A., Zhong, Zhong Simultaneous intracellular calcium and sodium flux imaging in human VR1-transfected human embryonic kidney cells: a method to resolve ionic dependence of VR1-mediated cell death. J. Pharmacol. Exp. ther., 2002, 300(1), 9-17.) HEK293 cells were transfected with human VR1 and washed with Hank's balanced Salt Solution, dissociated with cell dissociation buffer (Sigma), and then centrifuged at 1000× g for 5 min. Cell pellets were homogenized in cold 20 mM HEPES buffer (pH 7.4), containing 5.8 mM NaCl, 320 mM sucrose, 2 mM MgCl2, 0.75 CaCl2 and 5 mM KCl and centrifuged at 1000× g for 15 min. The resultant supernate was then centrifuged at 40000× g for 15 min. The pelleted membranes were stored in a freezer at −80 C.
Approximately 120 μg protein/ml from membranes were incubated with indicated concentrations of [^3H]RTX in 0.5 ml of the HEPES buffer (pH 7.4) containing 0.25 mg/mL fatty acid-free bovine serum albumin at 37 C for 60 min. After cooling the reaction mixture to 4 C, 0.1 mg (x-acid glycoprotein was added to each sample, which was incubated at 4 C for 15 min and then centrifuged at 18500× g for 15 min. The tip of the microcentrifuge tube containing the pellet was cut off. Bound radioactivity was quantified by scintillation counting. Non-specific binding was assessed in the presence of 200 nM unlabeled resiniferatoxin.
Data were calculated according to the equation: % inhibtion=(total binding−binding)*100/(total binding−non specific binding).
Ki values were calculated based on an average of duplicate measurements using a GraphPad Prism program.

In assay [2] the target is T1, human VR1. Kind of assay: Human VR1 functional assay (FLIPR intracellular Ca2+). The format is cell-based. The following applies: for h % I (5 μM) / inhibition at 1 µM / h % I (10 μM) / inhibition at 5 µM: inhibition of capsaicin response; for inhibition at 1 µM: read-out: h % I (1 μM); for Emax at 12 µM: read-out: % Response Relative to EC80 of Capsaicin (12 μM); for inhibition at 5 µM: read-out: h % I (5 μM); for pIC50: antagonism of capsaicin-induced Ca2+ increase, read-out: h IC50; for pEC50: agonist-induced Ca2+ increase, read-out: h EC50. Here is the method:
The functional activity of the test compounds was determined by measuring changes in intracellular calcium concentration using a Ca^2+-sensitive fluorescent dye and FLIPR™ technology. Increases in Ca^2+ concentration were readily detected upon challenge with capsaicin. HEK293 Cells expressing human VR1 were grown on poly-D-lysine coated 384 well black-walled plates (BD 354663) and 1 day later loaded with Calcium 3 Dye for 35 min at 37 C, 5% CO2 and then for 25 min at room temperature, and subsequently tested for agonist-induced increases in intracellular Ca^2+ levels using FLIPR™ technology. Cells were challenged with test compounds (at varying concentrations, which are indicated in parentheses in the heading of the table below) and intracellular Ca^2+ was measured for 5 min prior to the addition of capsaicin to all wells to achieve a final concentration of eliciting an approximate 80% maximal response ([…]). EC50 or IC50 values were determined from dose-response studies. Curves were generated using the average of quadruplicate wells for each data point.

T1 sequence (Q8NER1 whole entry): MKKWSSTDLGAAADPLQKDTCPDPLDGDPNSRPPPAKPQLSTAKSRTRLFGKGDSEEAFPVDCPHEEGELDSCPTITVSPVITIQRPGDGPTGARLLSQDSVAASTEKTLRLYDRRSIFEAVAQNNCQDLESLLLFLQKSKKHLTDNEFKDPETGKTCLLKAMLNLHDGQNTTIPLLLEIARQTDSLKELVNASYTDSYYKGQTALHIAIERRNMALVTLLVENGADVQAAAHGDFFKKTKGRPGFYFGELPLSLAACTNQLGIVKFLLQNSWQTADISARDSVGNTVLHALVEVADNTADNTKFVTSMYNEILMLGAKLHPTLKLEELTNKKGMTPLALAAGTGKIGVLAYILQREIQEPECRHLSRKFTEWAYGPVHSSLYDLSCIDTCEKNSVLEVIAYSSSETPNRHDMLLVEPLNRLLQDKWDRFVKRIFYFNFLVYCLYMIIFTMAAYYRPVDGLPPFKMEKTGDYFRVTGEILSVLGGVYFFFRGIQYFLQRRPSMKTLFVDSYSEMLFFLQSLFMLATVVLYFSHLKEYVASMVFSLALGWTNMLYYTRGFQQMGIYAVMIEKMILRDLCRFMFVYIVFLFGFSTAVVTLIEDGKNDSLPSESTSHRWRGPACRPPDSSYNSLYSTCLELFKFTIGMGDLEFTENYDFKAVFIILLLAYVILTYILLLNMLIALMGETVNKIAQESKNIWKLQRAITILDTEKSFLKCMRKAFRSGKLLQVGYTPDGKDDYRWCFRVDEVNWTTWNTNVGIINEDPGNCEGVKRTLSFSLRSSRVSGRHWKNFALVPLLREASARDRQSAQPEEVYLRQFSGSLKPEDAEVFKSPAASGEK

Regarding `CC1=NN(c2ccc(NC(=O)CCc3ccc(C(C)(C)C)cc3)cc2)C(=O)C1` [Cpd 201], in assay [1], the “h Binding % I (1 μM)” value worked out at 1%. The “h % I (5 μM)” value in assay [2] was found to be 57%.
A word on the pKi: it is the Ki on a negative log10 scale, so that one unit is a factor of ten. Regarding `Cc1cn(-c2ccc(NC(=O)/C=C/c3ccc(C(F)(F)F)cn3)cc2C(F)(F)F)cn1` [Cpd 277], in assay [1], the pKi is 6.85. Further, in assay [2], the inhibition at 1 µM is 38%.
As for `CC(C)(C)c1ccc(CCC(=O)Nc2ccc(-c3cccc(O)c3)cc2)cc1` [Cpd 6, 3-(4-tert-butyl-phenyl)-N-(3′-hydroxy-biphenyl-4-yl)-propionamide], in assay [1], the pKi was 7.07 and the inhibition at 1 µM was 67%. The Emax at 12 µM in assay [2] (agonist response) came out at 24%.
The corresponding values for `O=C(CCc1ccc(C(F)(F)F)cc1)Nc1ccc(-c2cccc(O)c2)cc1` [Cpd 77] are 6.87, 72% and 88%.
In the case of `CC(C)(C)c1ccc(CCC(=O)Nc2ccc(-c3cccc(O)c3)c(C(=O)O)c2)cc1` [Cpd 74], the “h Binding % I (1 μM)” value in assay [1] is given as 1%. Further, the “h % I (10 μM)” value in assay [2] is listed as 8%.
For `CC(C)(C)c1ccc(/C=C/C(=O)Nc2ccc(-c3cccc(C(N)=O)c3)cc2)cc1` [Cpd 35, 4′-[3-(4-tert-butyl-phenyl)-acryloylamino]-biphenyl-3-carboxylic acid amide], the inhibition at 1 µM in assay [1] came to 30%. The Emax at 12 µM in assay [2] (agonist response) amounted to 53%.
In the case of `O=C(CCc1ccc(C(F)(F)F)cc1)Nc1ccc(-c2cccnc2F)c(C(F)(F)F)c1` [Cpd 258], the pKi in assay [1] was 6.30. In assay [2], the inhibition at 5 µM was found to be 93%.
On to `CC(C)(C)c1ccc(CCC(=O)Nc2ccc(-c3cccc(O)c3)c(F)c2)cc1` [Cpd 61], for which, in assay [1], the pKi is 7.27 and the inhibition at 1 µM came out at 96%. Also, in assay [2] (agonist response), the Emax at 12 µM is 68%.
As usually defined, the pIC50 is the negative decadic logarithm of the IC50, by convention in mol/L. Compound `O=C(CCc1ccc(C(F)(F)F)cc1)Nc1ccc(-c2ccc(CO)cc2)c(C(F)(F)F)c1` [Cpd 250] had a pKi in assay [1] of 6.70. In addition, in assay [2], the pIC50 was 6.14 and the inhibition at 5 µM is 100%.
For `O=C(CCc1ccc(C(F)(F)F)cc1)Nc1cnc(-c2ccc(CO)cc2)c(C(F)(F)F)c1` [Cpd 225] the same measures were 6.79, 6.82 and 100%.
The corresponding values for `O=C(CCc1ccc(Cl)cc1)Nc1ccc(-c2ccncc2)c(C(F)(F)F)c1` [Cpd 230] are 5.99, 6.69 and 101%.
Consider `CC(=O)Nc1cccc(-c2ccc(NC(=O)CCc3ccc(C(C)(C)C)cc3)cc2)c1` [Cpd 16], for which, in assay [1], the pKi is 6.77 and the inhibition at 1 µM was 68%. Besides, the Emax at 6 µM in assay [2] (agonist response, 6 μM, read-out: % Response Relative to EC80 of Capsaicin (6 μM)) is 63%. For the same compound, in assay [2] (agonist response), the Emax at 12 µM is 101%.
As for `Cc1cccc(-c2ccc(NC(=O)CCc3ccc(C(C)(C)C)cc3)cc2)c1` [Cpd 28], the “h Binding % I (1 μM)” value in assay [1] is 48%. Moreover, in assay [2] (agonist response), the “% Response Relative to EC80 of Capsaicin (12 μM)” value (from here on “% Response Relative to EC80”) came out at 81%.
Consider `Cc1cc(NC(=O)CCc2ccc(C(C)(C)C)cc2)ccc1-c1ccc(CO)cc1` [Cpd 99], for which, in assay [1], the pKi is 7.54. For the same compound, in assay [2], the pIC50 was 6.68, the inhibition at 1 µM came out at 97% and the inhibition at 5 µM worked out at 79%.
Regarding `O=C(CCc1ccc(C(F)(F)F)cc1)Nc1ccc(-c2cccnc2)cc1` [Cpd 142], the “h Binding % I (1 μM)” value in assay [1] came to 45%. In addition, in assay [2] (agonist response), the “% Response Relative to EC80” value amounted to 78%.
As a reminder, the pEC50 is −log10 of the EC50, conventionally taken in molar units. Turning to `CC(C)(C)c1ccc(CCC(=O)Nc2ccc(-c3cccc(CN)c3)cc2)cc1` [Cpd 43], the inhibition at 1 µM in assay [1] turned out to be 23%. The Emax at 12 µM in assay [2] (agonist response) amounted to 104%. In addition, the pEC50 in assay [2] was 5.78.
As for `O=C(CCc1ccc(C(F)(F)F)cc1)Nc1cnc(-c2ccncc2)c(C(F)(F)F)c1` [Cpd 255], the pKi in assay [1] was 6.48. In addition, in assay [2], the inhibition at 5 µM is 100%.
On to `CC(C)(C)c1ccc(CCC(=O)Nc2ccc(-c3cccc(O)c3)cc2)s1` [Cpd 65, 3-(5-tert-butyl-thiophen-2-yl)-N-(3′-hydroxy-biphenyl-4-yl)-propionamide], for which, in assay [1], the pKi is 6.77 and the inhibition at 1 µM came out at 77%. Further, in assay [2] (agonist response), the Emax at 12 µM is 87%.
For `O=C(CCc1ccc(C(F)(F)F)cc1)Nc1ccc(-c2cccc(O)c2)c2ccccc12` [Cpd 85], the “h Binding % I (1 μM)” value in assay [1] was found to be 1%. Also, in assay [2], the “h % I (5 μM)” value was determined as 21%.
`CC(C)(C)c1ccc(CCC(=O)Nc2ccc(-c3cccc(OC(F)(F)F)c3)cc2)cc1` [Cpd 26]: the “h Binding % I (1 μM)” value in assay [1] is listed as 10%. Further, the “% Response Relative to EC80” value in assay [2] (agonist response) came out at 65%.
`CC(C)(C)c1ccc(CCC(=O)Nc2cccc(-c3cccc(C(N)=O)c3)c2)cc1` [Cpd 37]: the “h Binding % I (1 μM)” value in assay [1] came out at 21%. In addition, the “h % I (10 μM)” value in assay [2] amounted to 16%.
In the case of `O=C(CCc1ccc(C(F)(F)F)cc1)Nc1ccc(-c2cccc(CO)c2)nc1` [Cpd 149], the “h Binding % I (1 μM)” value in assay [1] came out at 9%. For the same compound, the “% Response Relative to EC80” value in assay [2] (agonist response) was 101%.
As to `CC(C)(C)c1ccc(CCC(=O)Nc2ccccc2-c2ccncc2)cc1` [Cpd 103], the inhibition at 1 µM in assay [1] stood at 1%. In assay [2], the pIC50 was 5.45.
`Cc1cc(NC(=O)/C=C/c2ccc(N(C)C3CCCCC3)cc2)cnc1-n1cnc(Cl)c1Cl` [Cpd 241, trans-3-[4-(Cyclohexyl-methyl-amino)-phenyl]-N-[6-(4,5-dichloro-imidazol-1-yl)-5-methyl-pyridin-3-yl]-acrylamide] had a pKi in assay [1] of 7.10. In assay [2], the pIC50 is 6.40 and the inhibition at 1 µM was 92%.
As for `O=C(CCc1ccc(C(F)(F)F)cc1)Nc1ccc(-c2cccnc2)nc1` [Cpd 151], in assay [1], the “h Binding % I (1 μM)” value is 35%. The “% Response Relative to EC80” value in assay [2] (agonist response) was 91%.
With `CC(C)(C)c1ccc(CCC(=O)Nc2ccccc2-c2ccc(O)cc2)cc1` [Cpd 1], the “h Binding % I (1 μM)” value in assay [1] is reported as 1%. Further, the “h % I (10 μM)” value in assay [2] is listed as 45%.
In the case of `Cn1cncc1-c1ccc(NC(=O)CCc2ccc(C(C)(C)C)cc2)cc1` [Cpd 191], the inhibition at 1 µM in assay [1] turned out to be 19%. Also, the pIC50 in assay [2] was 9.01.
`CC(C)(C)c1ccc(CCC(=O)Nc2cccc(-c3ccncc3)c2)cc1` [Cpd 104]: in assay [1], the pKi was 6.74 and the inhibition at 1 µM was 73%. The Emax at 12 µM in assay [2] (agonist response) came to 62%.
With `CC(C)(C)c1ccc(CCC(=O)Nc2ccc(-c3ccccc3O)nc2)cc1` [Cpd 132], in assay [1], the “h Binding % I (1 μM)” value is given as 45%. The “h % I (5 μM)” value in assay [2] stood at 30%.
Regarding `CC(C)(C)c1ccc(CCC(=O)Nc2cccc(-c3ccccc3O)c2)cc1` [Cpd 9], in assay [1], the “h Binding % I (1 μM)” value was found to be 1%. For the same compound, the “h % I (10 μM)” value in assay [2] came to 16%.
For the compound `Cc1cn(-c2ncc(NC(=O)CCc3ccc(C(F)(F)F)cc3)cc2C)cn1` [Cpd 226], the pKi in assay [1] was 6.12. In assay [2], the pIC50 is 6.79 and the inhibition at 1 µM was found to be 83%.
For `CC(C)(C)c1ccc(CCC(=O)Nc2ccccc2-c2ccccn2)cc1` [Cpd 108], in assay [1], the inhibition at 1 µM was determined as 16%. Besides, the Emax at 12 µM in assay [2] (agonist response) turned out to be 98%. In assay [2], the pEC50 is 6.03.
As to `Cc1cc(NC(=O)CCc2ccc(C(C)(C)C)cc2)cnc1-n1ccnc1` [Cpd 214], the pKi in assay [1] was 6.27. Moreover, in assay [2], the pIC50 was 7.14 and the inhibition at 5 µM came to 91%.
For the compound `CC(C)(C)c1ccc(CCC(=O)Nc2ccc(-c3cccc(C(N)=O)c3)cn2)cc1` [Cpd 124], the “h Binding % I (1 μM)” value in assay [1] is given as 1%.
Still for that read-out and setting: for `CC(=O)Nc1cccc(-c2ccc(NC(=O)CCc3ccc(C(C)(C)C)cc3)c(C)c2)c1` [Cpd 54] the value was 5%; for `CC(C)(C)c1ccc(CCC(=O)Nc2ccc(-c3cccc(C(N)=O)c3)cc2)s1` [Cpd 63], 1%.
Still for that read-out and setting: for `CC(C)(C)c1ccc(CCC(=O)Nc2cccc(-c3cccc(O)c3)n2)cc1` [Cpd 126] the value was 9%.

The values above are taken from patent publication US20060223837A1 (priority 2005, published 2006).
